According to US12264156B2, “Compounds and pharmaceutical compositions thereof for the treatment of diseases” (GALAPAGOS NV, priority 2018, dated 2025):

What was measured:
Format in all cases: biochemical
Conditions in all cases: ADP-Glo SIK kinase assay
SIK1 = biological target: T1, SIK1 (Homo sapiens, UniProt P57059); assay: ADP-Glo kinase assay, SIK1
T1 construct: purchased Carna Biosciences 02-131
Protocol: (§1) The ADP-Glo™ kinase assay is a luminescent technology assay which measures the ADP formed from a kinase reaction. […] In a second step the kinase reactions are terminated and all the remaining ATP is depleted. In a final step the ADP is converted into ATP and this newly synthesized ATP is measured by using a luciferase/luciferin reaction. The generated light is measured using an Envision plate reader, wherein the luminescent signal obtained positively correlates with the kinase activity.
(§2) 1% DMSO and 10 μM staurosporine final concentrations are used as negative and positive controls.
(§3) 2 μL enzyme-substrate mixture is added to the assay plates.
(§4) The reaction is started by adding 2 μL diluted ATP on the assay plates. Plates are centrifuged for a few seconds at 1000 rpm and gently shaken for 2 min followed by an incubation at RT for 120 min.
(§5) The reactions are stopped and the unconsumed ATP is depleted by adding 5 μL ADP-Glo Reagent (Promega, Cat #V912B) to the reaction. The plates are centrifuged for a few seconds at 1000 rpm and incubated at RT for 40 min (ATP depletion).
(§6) The ADP is converted to ATP and luciferase and luciferin is introduced to detect ATP by adding 10 μL Kinase Detection Reagent (Promega, Cat #V913B+V914B) to the reaction. The plates are centrifuged for a few seconds at 1000 rpm and incubated at RT for 30 min (ADP detection).
(§7) Luminescence is measured on an Envision plate reader (PerkinElmer Inc.).

SIK2 = biological target: T2, SIK2 (Homo sapiens, UniProt Q9H0K1); assay: ADP-Glo kinase assay, SIK2
T2 construct: purchased ThermoFisher Scientific PV4792
Protocol: as §1, §2, §3, §4, §5, §6, §7

SIK3 = biological target: T3, SIK3 (Homo sapiens, UniProt Q9Y2K2); assay: ADP-Glo kinase assay, SIK3
T3 construct: purchased SignalChem S12-11G-100
Protocol: as §1, §2, §3, §4, §5, §6, §7

T2 sequence (Q9H0K1 whole entry): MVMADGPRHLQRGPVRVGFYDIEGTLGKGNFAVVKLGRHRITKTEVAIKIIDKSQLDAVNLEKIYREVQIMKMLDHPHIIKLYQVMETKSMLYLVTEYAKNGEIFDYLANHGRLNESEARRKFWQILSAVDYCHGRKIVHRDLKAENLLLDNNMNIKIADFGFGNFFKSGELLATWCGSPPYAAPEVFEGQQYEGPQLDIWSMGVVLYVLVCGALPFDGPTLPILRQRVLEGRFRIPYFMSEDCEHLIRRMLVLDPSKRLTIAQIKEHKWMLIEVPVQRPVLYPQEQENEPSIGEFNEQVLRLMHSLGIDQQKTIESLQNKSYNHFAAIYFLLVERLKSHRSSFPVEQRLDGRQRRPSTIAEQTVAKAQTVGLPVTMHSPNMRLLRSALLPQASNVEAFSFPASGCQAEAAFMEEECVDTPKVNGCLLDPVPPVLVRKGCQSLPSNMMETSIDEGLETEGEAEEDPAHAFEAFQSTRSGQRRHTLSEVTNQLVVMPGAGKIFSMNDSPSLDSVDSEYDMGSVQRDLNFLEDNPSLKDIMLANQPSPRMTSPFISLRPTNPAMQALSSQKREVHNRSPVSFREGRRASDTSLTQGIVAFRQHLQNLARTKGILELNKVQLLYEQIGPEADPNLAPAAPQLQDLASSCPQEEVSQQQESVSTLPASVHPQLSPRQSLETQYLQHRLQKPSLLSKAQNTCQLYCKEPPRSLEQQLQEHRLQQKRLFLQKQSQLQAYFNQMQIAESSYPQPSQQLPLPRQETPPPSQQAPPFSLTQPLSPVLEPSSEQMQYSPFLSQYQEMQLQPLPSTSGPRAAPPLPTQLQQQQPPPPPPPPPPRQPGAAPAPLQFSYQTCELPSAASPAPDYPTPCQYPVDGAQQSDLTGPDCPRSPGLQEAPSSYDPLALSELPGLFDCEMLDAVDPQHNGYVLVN
T3 sequence (Q9Y2K2 whole entry): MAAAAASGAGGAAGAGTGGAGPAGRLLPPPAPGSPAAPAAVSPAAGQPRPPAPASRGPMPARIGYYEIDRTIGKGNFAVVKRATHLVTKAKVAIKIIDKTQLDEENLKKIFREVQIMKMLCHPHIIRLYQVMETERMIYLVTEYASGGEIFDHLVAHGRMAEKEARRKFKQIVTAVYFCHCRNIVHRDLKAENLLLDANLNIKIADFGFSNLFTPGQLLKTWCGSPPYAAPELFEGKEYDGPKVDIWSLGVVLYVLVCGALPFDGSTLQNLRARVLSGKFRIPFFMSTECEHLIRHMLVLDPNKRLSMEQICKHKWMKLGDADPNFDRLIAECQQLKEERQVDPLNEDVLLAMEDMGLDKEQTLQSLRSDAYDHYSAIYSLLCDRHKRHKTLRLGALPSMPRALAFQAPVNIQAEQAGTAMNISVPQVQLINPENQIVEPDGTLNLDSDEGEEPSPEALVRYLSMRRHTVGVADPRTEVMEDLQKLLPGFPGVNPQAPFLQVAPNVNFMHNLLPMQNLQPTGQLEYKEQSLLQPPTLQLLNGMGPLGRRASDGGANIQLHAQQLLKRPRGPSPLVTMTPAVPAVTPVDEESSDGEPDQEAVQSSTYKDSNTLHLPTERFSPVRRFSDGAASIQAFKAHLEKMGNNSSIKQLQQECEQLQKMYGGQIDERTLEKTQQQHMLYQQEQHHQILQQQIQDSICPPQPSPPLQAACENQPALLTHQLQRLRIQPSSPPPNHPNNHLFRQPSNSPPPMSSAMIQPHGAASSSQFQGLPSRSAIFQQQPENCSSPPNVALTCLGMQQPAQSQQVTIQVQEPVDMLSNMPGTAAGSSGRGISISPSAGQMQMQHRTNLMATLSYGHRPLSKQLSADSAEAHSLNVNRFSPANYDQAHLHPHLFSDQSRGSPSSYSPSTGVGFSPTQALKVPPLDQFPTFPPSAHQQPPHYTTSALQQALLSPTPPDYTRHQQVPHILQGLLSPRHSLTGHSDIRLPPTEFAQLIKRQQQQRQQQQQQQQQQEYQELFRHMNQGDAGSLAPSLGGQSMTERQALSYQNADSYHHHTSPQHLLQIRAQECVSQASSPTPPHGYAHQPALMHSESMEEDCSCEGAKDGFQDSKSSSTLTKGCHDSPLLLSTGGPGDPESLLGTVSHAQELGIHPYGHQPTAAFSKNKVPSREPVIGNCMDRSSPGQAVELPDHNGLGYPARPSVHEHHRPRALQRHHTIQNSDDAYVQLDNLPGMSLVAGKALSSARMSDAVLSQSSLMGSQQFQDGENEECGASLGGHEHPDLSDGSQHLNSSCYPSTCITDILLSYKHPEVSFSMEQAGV
T1 sequence (P57059 whole entry): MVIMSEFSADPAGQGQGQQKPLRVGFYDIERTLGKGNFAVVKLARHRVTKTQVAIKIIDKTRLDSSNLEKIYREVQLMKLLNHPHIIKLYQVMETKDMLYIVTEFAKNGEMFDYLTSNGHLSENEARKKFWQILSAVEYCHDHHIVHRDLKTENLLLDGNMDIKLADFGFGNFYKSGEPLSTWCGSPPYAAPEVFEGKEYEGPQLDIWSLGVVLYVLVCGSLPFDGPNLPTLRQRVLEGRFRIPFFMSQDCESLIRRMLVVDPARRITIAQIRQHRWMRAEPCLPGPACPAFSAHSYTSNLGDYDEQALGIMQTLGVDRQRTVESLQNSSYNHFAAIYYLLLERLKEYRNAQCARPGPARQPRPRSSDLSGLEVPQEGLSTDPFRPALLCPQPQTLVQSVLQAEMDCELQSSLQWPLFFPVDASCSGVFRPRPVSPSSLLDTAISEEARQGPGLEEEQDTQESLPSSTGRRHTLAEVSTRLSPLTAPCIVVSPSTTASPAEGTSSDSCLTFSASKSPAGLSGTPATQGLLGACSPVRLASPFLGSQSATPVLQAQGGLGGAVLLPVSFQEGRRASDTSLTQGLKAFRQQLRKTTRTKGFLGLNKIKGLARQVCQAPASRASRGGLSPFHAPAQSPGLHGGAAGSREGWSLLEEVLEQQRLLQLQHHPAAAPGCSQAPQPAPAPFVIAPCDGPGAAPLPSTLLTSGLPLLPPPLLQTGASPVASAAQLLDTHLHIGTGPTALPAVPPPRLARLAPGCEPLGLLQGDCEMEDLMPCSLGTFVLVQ

Row | SMILES | IC50 (SIK1) | IC50 (SIK2) | IC50 (SIK3)
1 | COc1cc(-c2cnc3cc(OCCN4C5CCC4COC5)ccn23)cc2c1C(=O)N(CC(F)(F)F)CC2 [compound 246, 8-methoxy-6-[7-[2-(3-oxa-8-azabicyclo[3.2.1]octan-8-yl)ethoxy]imidazo[1,2-a]pyridin-3-yl]-2-(2,2,2-trifluoroethyl)-3,4-dihydroisoquinolin-1-one] | 100 to 500 nM | 0.01 to 10 nM | 10 to 100 nM
2 | COc1cc(-c2cnc3cc(OCCO)ccn23)cc2c1C(=O)N(CC(F)(F)F)CC2 [Cpd 258, 6-[7-(2-hydroxyethoxy)imidazo [1,2-a]pyridin-3-yl]-8-methoxy-2-(2,2,2-trifluoroethyl)-3,4-dihydroisoquinolin-1-one] | 100 to 500 nM | 10 to 100 nM | 0.01 to 10 nM
3 | COc1ccn2c(-c3cc4c(c(OC)c3)C(=O)N(CC(F)(F)F)CC4)cnc2c1 [Cpd 256, 8-methoxy-6-(7-methoxyimidazo[1,2-a]pyridin-3-yl)-2-(2,2,2-trifluoroethyl)-3,4-dihydroisoquinolin-1-one] | 100 to 500 nM | 10 to 100 nM | 10 to 100 nM
4 | COc1cc(-c2cnc3cc(OCCCN4CCCCC4)ccn23)cc(OC(F)F)c1C(=O)N[C@H]1CC[C@H]1O (racemic) [compound 353, 2-(difluoromethoxy)-6-methoxy-4-[7-[3-(1-piperidyl)propoxy]imidazo [1,2-a]pyridin-3-yl]-N-[(1S,2R)-2-hydroxycyclobutyl] benzamide/2-(difluoromethoxy)-N-[(1R,2S)-2-hydroxycyclobutyl]-6-methoxy-4-[7-[3-(1-piperidyl)propoxy]imidazo[1,2-a]pyridin-3-yl]benzamide mixture] | 100 to 500 nM | 0.01 to 10 nM | 10 to 100 nM
5 | COc1cc(-c2cnc3cc(OCC4CCCN4C)ccn23)cc(OC(F)F)c1C(=O)NC1CC1 (stereo not drawn) [compound 28, N-cyclopropyl-2-(difluoromethoxy)-6-methoxy-4-[7-[(1-methylpyrrolidin-2-yl)methoxy]imidazo[1,2-a]pyridin-3-yl]benzamide] | 100 to 500 nM | 0.01 to 10 nM | 0.01 to 10 nM
6 | COc1cc(-c2cnc3cc(OC[C@@H](N)C4CCCCC4)ccn23)cc(OC(F)F)c1C(=O)NC1CC1 [compound 133, 4-[7-[(2S)-2-amino-2-cyclohexyl-ethoxy]imidazo[1,2-a]pyridin-3-yl]-N-cyclopropyl-2-(difluoromethoxy)-6-methoxy-benzamide] | 10 to 100 nM | 0.01 to 10 nM | 0.01 to 10 nM
7 | COc1cc(-c2cnc3cc(OCCCN4CCCC(C#N)C4)ccn23)cc(OC(F)F)c1C(=O)NC1CC1 (stereo not drawn) [compound 346, 4-[7-[3-(3-cyano-1-piperidyl)propoxy]imidazo [1,2-a]pyridin-3-yl]-N-cyclopropyl-2-(difluoromethoxy)-6-methoxy-benzamide] | 10 to 100 nM | 0.01 to 10 nM | 0.01 to 10 nM
8 | COc1cc(-c2cnc3cc(OCc4ccccc4)ncn23)cc(OC(F)F)c1C(=O)NC1CC1 [Cpd 159, 4-(7-benzyloxyimidazo[1,2-c]pyrimidin-3-yl)-N-cyclopropyl-2-(difluoromethoxy)-6-methoxy-benzamide] | 100 to 500 nM | 10 to 100 nM | 0.01 to 10 nM
9 | COc1cc(-c2cnc3cc(OCC4(F)CNC4)ccn23)cc2c1C(=O)N(CC(F)(F)F)CC2 [compound 250, 6-[7-[(3-fluoroazetidin-3-yl)methoxy]imidazo[1,2-a]pyridin-3-yl]-8-methoxy-2-(2,2,2-trifluoroethyl)-3,4-dihydro isoquinolin-1-one] | 100 to 500 nM | 0.01 to 10 nM | 0.01 to 10 nM
10 | COc1cc(-c2cnc3cc(OCC4CCCCN4CC(F)(F)F)ccn23)cc(OC(F)F)c1C(=O)NC1CC1 (stereo not drawn) [Cpd 182, N-cyclopropyl-2-(difluoromethoxy)-6-methoxy-4-[7-[[1-(2,2,2-trifluoroethyl)-2-piperidyl]methoxy]imidazo[1,2-a]pyridin-3-yl]benzamide] | 10 to 100 nM | 10 to 100 nM | 0.01 to 10 nM
11 | COc1cc(-c2cnc3cc(OCCN4CCOC(C#N)C4)ccn23)cc(OC(F)F)c1C(=O)NC1CC1 (stereo not drawn) [compound 213, 4-[7-[2-(2-cyanomorpholin-4-yl)ethoxy]imidazo[1,2-a]pyridin-3-yl]-N-cyclopropyl-2-(difluoromethoxy)-6-methoxy-benzamide] | 10 to 100 nM | 0.01 to 10 nM | 0.01 to 10 nM
12 | COc1cc(-c2cnc3cc(OCCN4CCOC(C)C4)ccn23)cc(OC(F)F)c1C(=O)NC1CC1 (stereo not drawn) [compound 214, N-cyclopropyl-2-(difluoromethoxy)-6-methoxy-4-[7-[2-(2-methylmorpholin-4-yl)ethoxy]imidazo[1,2-a]pyridin-3-yl] benzamide] | 10 to 100 nM | 0.01 to 10 nM | 0.01 to 10 nM

Further lines, results first:

Row | IC50 (SIK1) | IC50 (SIK2) | IC50 (SIK3) | SMILES
13 | 10 to 100 nM | 0.01 to 10 nM | 0.01 to 10 nM | COc1cc(-c2cnc3cc(OCC(N)C4CCOC4)ccn23)cc(OC(F)F)c1C(=O)NC1CC1 (stereo not drawn) [compound 134, 4-[7-(2-amino-2-tetrahydrofuran-3-yl-ethoxy)imidazo[1,2-a]pyridin-3-yl]-N-cyclopropyl-2-(difluoromethoxy)-6-methoxy-benzamide]
14 | 0.01 to 10 nM | 0.01 to 10 nM | 0.01 to 10 nM | COc1cc(-c2cnc3cc(OCc4ccccc4)ccn23)cc(OC(F)F)c1C(=O)NC1CC1 [compound 68, 4-(7-benzyloxyimidazo[1,2-a]pyridin-3-yl)-N-cyclopropyl-2-(difluoromethoxy)-6-methoxy-benzamide]
15 | 0.01 to 10 nM | 0.01 to 10 nM | 0.01 to 10 nM | COc1cc(-c2cnc3cc(OC[C@H]4CCCN(C5COC5)C4)ccn23)cc(OC(F)F)c1C(=O)NC1CC1 [compound 318, N-cyclopropyl-2-(difluoromethoxy)-6-methoxy-4-[7-[[(3S)-1-(oxetan-3-yl)-3-piperidyl]methoxy]imidazo[1,2-a]pyridin-3-yl]benzamide]
16 | 0.01 to 10 nM | 0.01 to 10 nM | 0.01 to 10 nM | COc1cc(-c2cnc3cc(OCCN4CCCC(C#N)C4)ccn23)cc(OC(F)F)c1C(=O)NC1CC1 (stereo not drawn) [compound 216, 4-[7-[2-(3-cyano-1-piperidyl)ethoxy]imidazo [1,2-a]pyridin-3-yl]-N-cyclopropyl-2-(difluoromethoxy)-6-methoxy-benzamide]
17 | 10 to 100 nM | 0.01 to 10 nM | 0.01 to 10 nM | COc1cc(-c2cnc3cc(OCC4(O)CCN(C(C)C)C4)ccn23)cc(OC(F)F)c1C(=O)NC1CC1 (stereo not drawn) [Cpd 372, N-cyclopropyl-2-(difluoromethoxy)-4-[7-[(3-hydroxy-1-isopropyl-pyrrolidin-3-yl)methoxy]imidazo[1,2-a]pyridin-3-yl]-6-methoxy-benzamide]
18 | 10 to 100 nM | 0.01 to 10 nM | 0.01 to 10 nM | COc1cc(-c2cnc3cc(OCC(F)F)ccn23)cc(OC(F)F)c1C(=O)NC1CC1 [compound 90, N-cyclopropyl-4-[7-(2,2-difluoroethoxy)imidazo [1,2-a]pyridin-3-yl]-2-(difluoromethoxy)-6-methoxy-benzamide]
19 | 10 to 100 nM | 0.01 to 10 nM | 0.01 to 10 nM | COc1cc(-c2cnc3cc(OCC(N)C4CCCO4)ccn23)cc(OC(F)F)c1C(=O)NC1CC1 (stereo not drawn) [compound 136, 4-[7-(2-amino-2-tetrahydrofuran-2-yl-ethoxy)imidazo[1,2-a]pyridin-3-yl]-N-cyclopropyl-2-(difluoromethoxy)-6-methoxy-benzamide]
20 | 10 to 100 nM | 0.01 to 10 nM | 0.01 to 10 nM | COc1cc(-c2cnc3cc(OCCOCCN4CCOCC4)ccn23)cc(OC(F)F)c1C(=O)NC1CC1 [compound 306, N-cyclopropyl-2-(difluoromethoxy)-6-methoxy-4-[7-[2-(2-morpholinoethoxy)ethoxy]imidazo[1,2-a]pyridin-3-yl]benzamide]
21 | 10 to 100 nM | 0.01 to 10 nM | 0.01 to 10 nM | COc1cc(-c2cnc3cc(OCc4cccnc4)ccn23)cc(OC(F)F)c1C(=O)NC1CC1 [compound 43, N-cyclopropyl-2-(difluoromethoxy)-6-methoxy-4-[7-(3-pyridylmethoxy)imidazo [1,2-a]pyridin-3-yl]benzamide]
22 | 10 to 100 nM | 0.01 to 10 nM | 0.01 to 10 nM | COc1cc(-c2cnc3cc(OCC4(N)CC4)ccn23)cc(OC(F)F)c1C(=O)NC1CC1 [compound 171, 4-[7-[(1-aminocyclopropyl)methoxy]imidazo[1,2-a]pyridin-3-yl]-N-cyclopropyl-2-(difluoromethoxy)-6-methoxy-benzamide]
23 | 0.01 to 10 nM | 0.01 to 10 nM | 0.01 to 10 nM | COC(=O)N1CCCCC1COc1ccn2c(-c3cc(OC)c(C(=O)NC4CC4)c(OC(F)F)c3)cnc2c1 (stereo not drawn) [Cpd 130, methyl 2-[[3-[4-(cyclopropylcarbamoyl)-3-(difluoromethoxy)-5-methoxy-phenyl]imidazo[1,2-a]pyridin-7-yl]oxymethyl]piperidine-1-carboxylate]
24 | 0.01 to 10 nM | 0.01 to 10 nM | 0.01 to 10 nM | COc1cc(-c2cnc3cc(OCC4CCCCN4C(C)=O)ccn23)cc(OC(F)F)c1C(=O)NC1CC1 (stereo not drawn) [Cpd 141, 4-[7-[(1-acetyl-2-piperidyl)methoxy]imidazo [1,2-a]pyridin-3-yl]-N-cyclopropyl-2-(difluoromethoxy)-6-methoxy-benzamide]
